Assay results reported in PMC6926478, “Structures of Respiratory Supercomplex I+III2 Reveal Functional and Conformational Crosstalk” (Molecular Cell, 2019).

Target: T1, SC I+III2 (complex I, NADH/FMN site) (Ovis aries, UniProt Z9LRO2FUZ7)
T1 construct: native supercomplex I+III2 from heart mitochondria, LMNG-extracted, amphipol A8-35 stabilised; complex I has 45 subunits, ~1 MDa; with NADH dehydrogenase [ubiquinone] flavoprotein 2, mitochondrial; NADH-ubiquinone oxidoreductase 75 kDa subunit, mitochondrial; NADH dehydrogenase [ubiquinone] iron-sulfur protein 2, mitochondrial; NADH dehydrogenase [ubiquinone] iron-sulfur protein 7, mitochondrial; NADH-ubiquinone oxidoreductase chain 1; Cytochrome b
Assay: cryoEM structure, […] Å focused map of CI peripheral arm
Assay type: binding
Conditions: native cofactor

**Q.** With `Cc1cc2nc3c(=O)[nH]c(=O)nc-3n(C[C@H](O)[C@H](O)[C@H](O)COP(=O)(O)O)c2cc1C` [FMN] as the compound, how does the “cryoEM structure, 3.8 Å focused map of CI peripheral arm” value read?
**A.** Its value is “The FMN, FeS clusters, and heme groups are shown colored by atom”.
